For experiment [1], the target named is T1, GLP-1R (Homo sapiens, UniProt P43220). Description: GloSensor cAMP reporter assay. The format is cell-based. Conditions: read-out: cAMP Max Response (% GLP-1). In general terms: In a reporter assay the amount or activity of a reporter protein is the signal.
Experiment [2] has as its target T1, GLP-1R. Description: β-arrestin-1 recruitment BRET^2 assay. Conditions: for Emax: HEK293FT, read-out: β-Arrestin-1 Max Response (% GLP-1). (In general: Activated receptors often draw arrestin, which recruitment assays turn into a signal.)
For experiment [3], the target named is T1, GLP-1R. In words: cell-based. Conditions: HEK293FT, read-out: β-Arrestin-2 Max Response (% GLP-1).
Experiment [4] deals with T1, GLP-1R. Conditions: within the concentration range examined (up to 1 µM).
The conditions of experiment [5]: previous studies; cited from earlier work.
Another experiment relates to mouse pancreatic islets. Conditions: cited from earlier work.
Experiment [6] concerns the target Human GLP-1R (glucagon-like peptide-1 receptor) (human) (UniProt P43220).

Results on six compounds are retold here after publication PMC5207657 (Journal of the American Chemical Society, 2016).

*1 amine or outer side, *2 acyl side, *3 side chain or, on linkers, in order; H or OH if unused. Where a SMILES comes first, the peptide text is derived from it. [ ]: non-standard residue; d: D form. X1 = O=C([C@H]1CCC[C@@H]1N[*:1])[*:2]; X2 = O=C([C@H]1CNC[C@@H]1N[*:1])[*:2]; Aib = CC(C)(N)C(=O)O

T1 sequence (P43220 24-463): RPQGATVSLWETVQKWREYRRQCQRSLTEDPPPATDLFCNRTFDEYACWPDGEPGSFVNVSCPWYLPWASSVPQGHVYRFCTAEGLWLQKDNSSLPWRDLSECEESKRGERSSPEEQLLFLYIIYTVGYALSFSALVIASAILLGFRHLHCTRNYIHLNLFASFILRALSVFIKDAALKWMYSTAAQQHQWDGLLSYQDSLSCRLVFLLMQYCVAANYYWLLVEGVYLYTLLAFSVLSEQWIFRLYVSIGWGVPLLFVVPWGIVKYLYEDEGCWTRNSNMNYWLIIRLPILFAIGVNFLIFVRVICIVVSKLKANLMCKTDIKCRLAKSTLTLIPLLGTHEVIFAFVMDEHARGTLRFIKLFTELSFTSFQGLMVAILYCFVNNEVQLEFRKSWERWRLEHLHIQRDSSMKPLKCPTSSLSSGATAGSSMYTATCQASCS
Sequence of Human GLP-1R (glucagon-like peptide-1 receptor) (human) (P43220 24-463): as above

Turning to `CC[C@H](C)[C@H](NC(=O)[C@H](Cc1ccccc1)NC(=O)[C@H](CCC(=O)O)NC(=O)[C@H]1CNC[C@@H]1NC(=O)[C@H](C)NC(=O)[C@H](C)NC(=O)[C@H](CCC(N)=O)NC(=O)[C@H]1CCC[C@@H]1NC(=O)[C@H](CCC(=O)O)NC(=O)[C@H](CC(C)C)NC(=O)[C@H](Cc1ccc(O)cc1)NC(=O)[C@H]1CCC[C@@H]1NC(=O)[C@H](CO)NC(=O)[C@@H](NC(=O)[C@H](CC(=O)O)NC(=O)[C@H](CO)NC(=O)[C@@H](NC(=O)[C@H](Cc1ccccc1)NC(=O)[C@@H](NC(=O)CNC(=O)[C@H](CCC(=O)O)NC(=O)[C@H](C)NC(=O)[C@@H](N)Cc1c[nH]cn1)[C@@H](C)O)[C@@H](C)O)C(C)C)C(=O)N[C@@H](C)C(=O)N[C@@H](Cc1c[nH]c2ccccc12)C(=O)N[C@@H](CC(C)C)C(=O)N[C@H](C(=O)N[C@@H](CCCCN)C(=O)NCC(=O)N[C@@H](CCCNC(=N)N)C(=O)NCC(N)=O)C(C)C` [α/β-Peptide 8] (H-HAEGTFTSDVS[X1]YLE[X1]QAA[X2]EFIAWLVKGRG-NH2), the Emax was 96 ± 1% at GLP-1R [1], 43 ± 3% on GLP-1R [2] and 63 ± 5% on GLP-1R [3].
In the same order, the values of `CC[C@H](C)[C@H](NC(=O)[C@H](Cc1ccccc1)NC(=O)[C@H](CCC(=O)O)NC(=O)[C@H]1CNC[C@@H]1NC(=O)[C@H](C)NC(=O)[C@H](C)NC(=O)[C@H](CCC(N)=O)NC(=O)[C@H]1CCC[C@@H]1NC(=O)[C@H](CCC(=O)O)NC(=O)[C@H](CC(C)C)NC(=O)[C@H](Cc1ccc(O)cc1)NC(=O)[C@H]1CCC[C@@H]1NC(=O)[C@H](CO)NC(=O)C(C)(C)NC(=O)[C@H](CC(=O)O)NC(=O)[C@H](CO)NC(=O)[C@@H](NC(=O)[C@H](Cc1ccccc1)NC(=O)[C@@H](NC(=O)CNC(=O)[C@H](CCC(=O)O)NC(=O)[C@H](C)NC(=O)[C@@H](N)Cc1c[nH]cn1)[C@@H](C)O)[C@@H](C)O)C(=O)N[C@@H](C)C(=O)N[C@@H](Cc1c[nH]c2ccccc12)C(=O)N[C@@H](CC(C)C)C(=O)N[C@H](C(=O)N[C@@H](CCCCN)C(=O)NCC(=O)N[C@@H](CCCNC(=N)N)C(=O)NCC(N)=O)C(C)C` [α/β-Peptide 9] (H-HAEGTFTSD[Aib]S[X1]YLE[X1]QAA[X2]EFIAWLVKGRG-NH2) are 97 ± 2%, 41 ± 4% and 59 ± 2%.
Regarding `CC[C@H](C)[C@H](NC(=O)[C@H](Cc1ccccc1)NC(=O)[C@H](CCC(=O)O)NC(=O)[C@H]1CNC[C@@H]1NC(=O)[C@H](C)NC(=O)[C@H](C)NC(=O)[C@H](CCC(N)=O)NC(=O)[C@H]1CCC[C@@H]1NC(=O)[C@H](CCC(=O)O)NC(=O)[C@H](CC(C)C)NC(=O)[C@H](Cc1ccc(O)cc1)NC(=O)[C@H]1CCC[C@@H]1NC(=O)[C@H](CO)NC(=O)C(C)(C)NC(=O)[C@H](CC(=O)O)NC(=O)[C@H](CO)NC(=O)[C@@H](NC(=O)[C@H](Cc1ccccc1)NC(=O)[C@@H](NC(=O)CNC(=O)[C@H](CCC(=O)O)NC(=O)C(C)(C)NC(=O)[C@@H](N)Cc1c[nH]cn1)[C@@H](C)O)[C@@H](C)O)C(=O)N[C@H]1CCC[C@@H]1C(=O)N[C@@H](Cc1c[nH]c2ccccc12)C(=O)N[C@@H](CC(C)C)C(=O)N[C@H](C(=O)N[C@H]1CNC[C@@H]1C(=O)NCC(=O)N[C@@H](CCCNC(=N)N)C(=O)NCC(N)=O)C(C)C` [α/β-Peptide 4] (H-H[Aib]EGTFTSD[Aib]S[X1]YLE[X1]QAA[X2]EFI[X1]WLV[X2]GRG-NH2), the Emax at GLP-1R [1] was determined as 60 ± 5%; on GLP-1R [2], 6 ± 8%; at GLP-1R [3], 13 ± 4%. Besides, the “β-arrestin-1 recruitment, result in words” value on GLP-1R [2] (within the concentration range examined (up to 1 µM)) is “no significant recruitment”. Besides, the “β-arrestin-2 recruitment, result in words” value on GLP-1R [4] is reported as “no significant recruitment”. Besides, in experiment [5], the “control of blood glucose in vivo” value is on record as “can control blood glucose in vivo”. The “duration of glucose control relative to GLP-1” value in experiment [5] is recorded as “prolonged”. In addition, the “insulin secretagogue activity compared with GLP-1” value in the experiment on mouse pancreatic islets is reported as “indistinguishable”.
On to `CC[C@H](C)[C@H](NC(=O)[C@H](Cc1ccccc1)NC(=O)[C@H](CCC(=O)O)NC(=O)[C@H]1CNC[C@@H]1NC(=O)[C@H](C)NC(=O)[C@H](C)NC(=O)[C@H](CCC(N)=O)NC(=O)CNC(=O)[C@H](CCC(=O)O)NC(=O)[C@H](CC(C)C)NC(=O)[C@H](Cc1ccc(O)cc1)NC(=O)[C@H]1CCC[C@@H]1NC(=O)[C@H](CO)NC(=O)[C@@H](NC(=O)[C@H](CC(=O)O)NC(=O)[C@H](CO)NC(=O)[C@@H](NC(=O)[C@H](Cc1ccccc1)NC(=O)[C@@H](NC(=O)CNC(=O)[C@H](CCC(=O)O)NC(=O)[C@H](C)NC(=O)[C@@H](N)Cc1c[nH]cn1)[C@@H](C)O)[C@@H](C)O)C(C)C)C(=O)N[C@@H](C)C(=O)N[C@@H](Cc1c[nH]c2ccccc12)C(=O)N[C@@H](CC(C)C)C(=O)N[C@H](C(=O)N[C@@H](CCCCN)C(=O)NCC(=O)N[C@@H](CCCNC(=N)N)C(=O)NCC(N)=O)C(C)C` [α/β-Peptide 13] (H-HAEGTFTSDVS[X1]YLEGQAA[X2]EFIAWLVKGRG-NH2), for which the results for the Emax on GLP-1R [1], at GLP-1R [2] and at GLP-1R [3] were 104 ± 1%, 80 ± 3% and 74 ± 4%, respectively.
For the compound GLP-1(7–36)NH2 (peptide), the cAMP production (GloSensor reporter cells), pEC50 in experiment [6] is -10.3 pEC50 (M).
In the case of `CC[C@H](C)[C@H](NC(=O)[C@H](Cc1ccccc1)NC(=O)[C@H](CCC(=O)O)NC(=O)[C@H]1CNC[C@@H]1NC(=O)[C@H](C)NC(=O)[C@H](C)NC(=O)[C@H](CCC(N)=O)NC(=O)CNC(=O)[C@H](CCC(=O)O)NC(=O)[C@H](CC(C)C)NC(=O)[C@H](Cc1ccc(O)cc1)NC(=O)[C@H](CO)NC(=O)[C@H](CO)NC(=O)[C@@H](NC(=O)[C@H](CC(=O)O)NC(=O)[C@H](CO)NC(=O)[C@@H](NC(=O)[C@H](Cc1ccccc1)NC(=O)[C@@H](NC(=O)CNC(=O)[C@H](CCC(=O)O)NC(=O)[C@H](C)NC(=O)[C@@H](N)Cc1c[nH]cn1)[C@@H](C)O)[C@@H](C)O)C(C)C)C(=O)N[C@H]1CCC[C@@H]1C(=O)N[C@@H](Cc1c[nH]c2ccccc12)C(=O)N[C@@H](CC(C)C)C(=O)N[C@H](C(=O)N[C@H]1CNC[C@@H]1C(=O)NCC(=O)N[C@@H](CCCNC(=N)N)C(=O)NCC(N)=O)C(C)C` [α/β-Peptide 1] (H-HAEGTFTSDVSSYLEGQAA[X2]EFI[X1]WLV[X2]GRG-NH2), the Emax on GLP-1R [1] is 101 ± 1%; at GLP-1R [2], 88 ± 6%; on GLP-1R [3], 78 ± 4%.
